Consider one molecule from EP4578449A1, “PHARMACEUTICAL COMBINATION OF FAK INHIBITOR AND MICROTUBULE INHIBITOR AND USE THEREOF” (Inxmed (Nanjing) Co., Ltd., priority 2022, dated 2024).

Holding throughout (format): cell-based
In assay [1] the test system is MDA-MB-231 cells. The assay is described as follows: FAK silencing combined with Eribulin, Annexin V apoptosis by flow cytometry. Conditions: MDA-MB-231 cells transfected with FAK siRNA 50 nM for 24 hours, then 0.15 µM Eribulin 48 hours; FAK silencing group compared with control group. The protocol: (§1) • 1. FAK silencing combined with Eribulin promotes apoptosis of breast cancer cells MDA-MB-231 The siRNA technology was used in the in vitro assays to reduce the expression level of FAK, and combined with Eribulin for 48 hours; flow cytometry was used to detect apoptosis in control and FAK silenced cells. • 2. FAK silencing combined with Eribulin can effectively promote the production of ICD in breast cancer cells MDA-MB-231 The siRNA technology was used in the in vitro assay to reduce the expression level of FAK, and combined with Eribulin for 48 hours. Flow cytometry was used to detect the expression of Calreticulin, the main target of ICD.
(§2) Recombinant Alexa Fluor® 647 fluorescent Anti-Calreticulin antibody (Abcam, ab196159), Annexin V apoptosis detection kit (Invitrogen, A35110).
(§3) FAK siRNA was provided by Gene Pharma, and the sequence is shown in the following table: • F: […]; • R: […] • Assay instruments: Fluorescence microscope (Olympus U-HGLGPS). Chemiluminescence imager (BIORAD chemidoc touch).
(§4) • 1. […] The cells were stained using Annexin V kit and detected by flow cytometry. The early and late apoptosis values were counted, compared with those of the DMSO control group, and plotted using Graphpad 8.0. […] The cells were fluorescent stained with Calreticulin antibody, and the staining results were analyzed by flow cytometry.
A general note: A flow cytometer gives signals particle by particle.

Assay [2] deals with mouse breast cancer 4T1 cells. Kind of assay: Docetaxel/Eribulin and Defactinib: microscopy and CRT/Annexin-V/PI flow cytometry. Conditions: 48 hours, Defactinib 5 µM, Docetaxel 0.3 µM, Eribulin 0.1 µM, alone or combined with Defactinib. The protocol: 4T1 cells were cultured in a monolayer in vitro in RPMI-1640 medium with 10% fetal bovine serum in a 37 °C, 5% CO2 incubator. Trypsin was used for routine digestion and passage treatment two to three times a week. When the cells were in the exponential growth phase and the adherent confluence reached 80%-90%, the cells were harvested and plated.
4T1 cells were digested with trypsin, and then the cells were collected and counted. Based on the counting results, the cells were diluted with the corresponding complete culture medium to a concentration of 50,000 cells per milliliter. Then the cells were plated in 12-well cell culture plates, with 2 ml of cell suspension per well, i.e., 100,000 cells.
(§5) After plating, the cells were cultured in a 37°C and 5% CO2 incubator.
After 24 hours of plating, the test compounds Defactinib, Docetaxel and Eribulin were added to different wells, respectively.
(§6) After 48 hours of drug action, the cells were photographed using a microscope, and then trypsinized and collected for flow cytometry staining.
The cells were washed twice with flow buffer (DPBS + 2% FBS). 0.5 µL of AF647 Anti-Calreticulin Antibody was added to each well, and mixed well. The cells were incubated at 4°C in the dark for 20 min. […]
(§7) After the assay, the cell positive rate was analyzed by Flowjo (V10) software.

The subject of assay [3] is MDA-MB-231 cells. The assay is described as follows: FAK silencing combined with Eribulin, Calreticulin (ICD target) by flow cytometry. Conditions: MDA-MB-231 cells transfected with FAK siRNA 50 nM for 24 hours, then 0.15 µM Eribulin 48 hours; vs control siRNA. The protocol:
as §1, §2, §3, §4

Assay [4] has as its system mouse breast cancer 4T1 cells. Kind of assay: Eribulin and IN10018: microscopy and CRT/Annexin-V/PI and GRP94 flow cytometry. Conditions: 48 hours, IN10018 5 µM, Eribulin 0.15 µM or 0.45 µM, alone or combined. The protocol: 4T1 cells were cultured in monolayer in vitro under the following conditions: RPMI-1640 medium with 10% fetal bovine serum, 37 °C, 5% CO2. Trypsin was used for routine digestion and passage treatment two to three times a week. When the cells were in the exponential growth phase and the adherent confluence reached 80%-90%, the cells were harvested and plated.
4T1 cells were digested with trypsin and then collected and counted. Based on the counting results, the cells were diluted with RPMI-1640+10% FBS to a concentration of 50,000 cells per milliliter. Then the cells were plated in 12-well cell culture plates, with 2 ml of cell suspension per well, i.e., 100,000 cells. After plating, the cells were cultured in a 37°C and 5% CO2 incubator.
(§8) After 24 hours of plating, test compounds IN10018 and Eribulin were added to different wells, respectively.
as §6
The cells were washed twice with flow buffer (DPBS + 2% FBS), and each group of cells was divided into two equal parts. In one part, 0.5 µL of AF647 Anti-Calreticulin Antibody was added to each well, and mixed. The cells were incubated at 4°C in the dark for 20 min. […]
as §7

The test system of assay [5] is mouse ovarian epithelial carcinoma ID8 cells. Kind of assay: Eribulin and IN10018: microscopy and CRT/Annexin-V/PI flow cytometry. Particulars: 48 hours, IN10018 10 µM, Eribulin 0.045 µM, alone or combined. As to the method: (§9) ID8 cells and TOV-21G cells were cultured in monolayer in vitro. ID8 cells were cultured in DMEM medium with 10% fetal bovine serum. TOV-21G cells were cultured in RPMI-1640 medium with 10% fetal bovine serum. Both were cultured in a 37 °C, 5% CO2 incubator. Trypsin was used for routine digestion and passage treatment two to three times a week. When the cells were in the exponential growth phase and the adherent confluence reached 80%-90%, the cells were harvested and plated.
(§10) ID8 cells and TOV-21G cells were digested with trypsin and then collected and counted. Based on the counting results, the cells were diluted with the corresponding complete culture medium to a concentration of 50,000 cells per milliliter. Then the cells were plated in 12-well cell culture plates, with 2 ml of cell suspension per well, i.e., 100,000 cells.
as §5, §8, §6
(§11) The cells were washed twice with flow buffer (DPBS + 2% FBS). 0.5 µL of AF647 Anti-Calreticulin Antibody was added to each well, and mixed. The cells were incubated at 4°C in the dark for 20 min. After washing once with flow buffer, 195 µL of Annexin-V-FITC binding solution was added, and the cells were gently mixed well. 5 µL of Annexin-V-FITC antibody was added. After further mixing, 10 µL of PI dye was added and mixed well. The cells were incubated at room temperature in the dark for 15 min. The cells were then subjected to flow cytometry.
as §7

Assay [6] deals with human ovarian epithelial carcinoma TOV-21G cells. The assay is described as above. Particulars: 48 hours, IN10018 10 µM, Eribulin 0.045 µM, alone or combined. As to the method: as §9, §10, §5, §8, §6, §11, §7
For assay [7], the system named is mouse colon cancer CT26 cells. The assay is described as follows: Docetaxel/Eribulin/Paclitaxel and Defactinib: microscopy and CRT/Annexin-V/PI flow cytometry. Particulars: 48 hours, Defactinib 5 µM, Docetaxel 0.3 µM, Eribulin 0.3 µM, Paclitaxel 6 µM, alone or combined with Defactinib. As to the method: CT26 cells were cultured in monolayer in vitro under the following conditions: RPMI-1640 medium with 10% fetal bovine serum, 37°C, 5% CO2. Trypsin was used for routine digestion and passage treatment two to three times a week. When the cells were in the exponential growth phase and the adherent confluence reached 80%-90%, the cells were harvested and plated.
CT26 cells were digested with trypsin, and then the cells were collected and counted. Based on the counting results, the cells were diluted with the corresponding complete culture medium to a concentration of 50,000 cells per milliliter. Then the cells were plated in 12-well cell culture plates, with 2 ml of cell suspension per well, i.e., 100,000 cells.
as §5
After 24 hours of plating, the test compounds Docetaxel, Eribulin, Paclitaxel and Defactinib were added to different wells, respectively.
as §6
The cells were washed twice with flow buffer (DPBS + 2% FBS). 0.5 µL of AF647 Anti-Calreticulin Antibody was added to each well, and mixed well. The cells were incubated at 4°C in the dark for 20 min. After washing once with flow buffer, 195 µL of Annexin-V-FITC binding solution was added, and the cells were gently mixed well. 5 µL of Annexin-V-FITC antibody was added. After further mixing, 10 µL of PI dye was added and mixed well. The cells were incubated at room temperature in the dark for 15 min. The cells were then subjected to flow cytometry.
as §7

Molecules are shown by their SMILES.

In the case of `C=C1C[C@@H]2CC[C@@]34C[C@H]5O[C@H]6[C@@H](O3)[C@H]3O[C@H](CC[C@@H]3O[C@H]6[C@H]5O4)CC(=O)C[C@@H]3[C@@H](OC)[C@@H](C[C@H](O)CN)O[C@H]3C[C@H]3O[C@@H](CC[C@@H]1O2)C[C@@H](C)C3=C` [Eribulin], the “early and late apoptosis (Annexin V kit)” value in the assay on MDA-MB-231 cells [1] is listed as “significantly enhanced”. For the same molecule, the “cell status (cell death) under a microscope” value in assay [2] and in assay [7] was “obvious” in each case. For the same molecule, the “release and exposure of Calreticulin” value with MDA-MB-231 cells [3] was “significantly enhanced”. For the same molecule, the “cell status (cell death / cell viability) under a microscope” value in assay [4], in assay [5] and in assay [6] was “obvious” throughout.
